Type in all cases: in vivo
The test system of assay [1] is velvetleaf (Abutilon theophrasti MEDIC.). The experiment in a line: Test Example 1: pot test, foliar application, velvetleaf. To be noted: 2.8 leaf stage, 21st day after application, read-out: Velvetleaf Growth inhibition rate (%) Observed. Here is the method: (§1) Upland field soil was put into a 1/1,000,000 ha pot, and seeds of various plants were sown. Then, when the plants reached the prescribed leaf stages ((1) 3.6 leaf stage of crabgrass (Digitaria sanguinalis L.), and (2), 2.8 leaf stage of velvetleaf (Abutilon theophrasti MEDIC.)), a prescribed amount of the herbicidal composition was diluted with water corresponding to 300 L/ha, and foliar application was carried out by means of a small size spray. On the 21st day after the application, the state of growth of each plant was visually observed, and the growth inhibition rate (%) evaluated in accordance with the following evaluation standard (observed value) and the growth inhibition rate (%) calculated by the above-mentioned Colby method (expected value) are shown in Tables 1 and 2 .
(§2) Growth inhibition rate (%)=0% (equivalent to the non-treated area) to 100% (complete kill)

For assay [2] the test system is unchanged. The experiment in a line: Test Example 3: pot test, foliar application, velvetleaf. To be noted: 2.3 to 2.5 leaf stage, 14th day after application, read-out: Velvetleaf Growth inhibition rate (%) Observed. The method, then:
as §2
Upland field soil was put into a 1/1,000,000 ha pot, and seeds of velvetleaf (Abutilon theophrasti MEDIC.) were sown. Then, when velvetleaf reached 2.3 to 2.5 leaf stage, a prescribed amount of the herbicidal composition was diluted with water corresponding to 300 L/ha, and foliar application was carried out by means of a small size spray.
On the 14th day after the application, the state of growth of velvetleaf was visually observed and evaluated in the same manner as in the above Test Example 1.

For assay [3] the test system is unchanged. Put plainly: Test Example 2: pot test, foliar application, velvetleaf. Particulars: 2.9 leaf stage, 21st day after application, read-out: Velvetleaf Growth inhibition rate (%) Observed. The method, then: as §2
Upland field soil was put into a 1/1,000,000 ha pot, and seeds of velvetleaf (Abutilon theophrasti MEDIC.) were sown. Then, when velvetleaf reached 2.9 leaf stage, a prescribed amount of the herbicidal composition was diluted with water corresponding to 300 L/ha, and foliar application was carried out by means of a small size spray.
On the 21st day after the application, the state of growth of velvetleaf was visually observed and evaluated in the same manner as in the above Test Example 1.

Assay [4] concerns crabgrass (Digitaria sanguinalis L.). The experiment in a line: Test Example 1: pot test, foliar application, crabgrass. Particulars: 3.6 leaf stage, 21st day after application, read-out: Crabgrass Growth inhibition rate (%) Observed. Here is the method: as §1, §2

Drawing on patent US20090264292A1, “HERBICIDAL COMPOSITION” (ISHIHARA SANGYO KAISHA, LTD., priority 2005, published 2009), this text covers inhibition for two molecules.

By inhibition is commonly meant how much of the control response was suppressed. Consider `COc1cc(OC)nc(NC(=O)NS(=O)(=O)c2ncccc2C(=O)N(C)C)n1` [Compound A-1, 2-(4,6-dimethoxypyrimidin-2-ylcarbamoylsulfamoyl)-N,N-dimethylnicotinamide], for which the inhibition at 50 g/ha in assay [1] (50 g/ha) was 60%. Also, the inhibition at 5 g/ha in assay [2] (5 g/ha) was 5%. The inhibition at 10 g/ha in assay [2] (10 g/ha) came to 8%. Moreover, in assay [2] (15 g/ha), the inhibition at 15 g/ha worked out at 12%. Also, the inhibition at 25 g/ha in assay [3] (25 g/ha) is 38%; in assay [4] (25 g/ha), 53%.

On to `CCNc1nc(Cl)nc(NC(C)(C)C)n1` [Compound B-1, N^2-tert-butyl-6-chloro-N^4-ethyl-1,3,5-triazine-2,4-diamine], for which the figures for the inhibition at 250 g/ha in assay [1] (250 g/ha) and in assay [4] (250 g/ha) were 57% and 5%, respectively. Besides, the figures for the inhibition at 500 g/ha in assay [1] (500 g/ha), in assay [3] (500 g/ha) and in assay [4] (500 g/ha) were 58%, 47% and 8%, respectively. Also, the inhibition at 1000 g/ha in assay [2] (1000 g/ha) was found to be 37%. For the same molecule, the inhibition at 1500 g/ha in assay [2] (1500 g/ha) came out at 43%. Besides, the inhibition at 2000 g/ha in assay [2] (2000 g/ha) turned out to be 43%.
